This is an account of results in patent publication US20240398784A1, “C-LINKED ISOQUINOLINE AMIDES AS LRRK2 INHIBITORS, PHARMACEUTICAL COMPOSITIONS, AND USES THEREOF” (Merck Sharp & Dohme LLC, priority 2021, published 2024).

Structures are written as SMILES.

Chain of LRRK2 G2019S (Q5S007 whole entry G2019S): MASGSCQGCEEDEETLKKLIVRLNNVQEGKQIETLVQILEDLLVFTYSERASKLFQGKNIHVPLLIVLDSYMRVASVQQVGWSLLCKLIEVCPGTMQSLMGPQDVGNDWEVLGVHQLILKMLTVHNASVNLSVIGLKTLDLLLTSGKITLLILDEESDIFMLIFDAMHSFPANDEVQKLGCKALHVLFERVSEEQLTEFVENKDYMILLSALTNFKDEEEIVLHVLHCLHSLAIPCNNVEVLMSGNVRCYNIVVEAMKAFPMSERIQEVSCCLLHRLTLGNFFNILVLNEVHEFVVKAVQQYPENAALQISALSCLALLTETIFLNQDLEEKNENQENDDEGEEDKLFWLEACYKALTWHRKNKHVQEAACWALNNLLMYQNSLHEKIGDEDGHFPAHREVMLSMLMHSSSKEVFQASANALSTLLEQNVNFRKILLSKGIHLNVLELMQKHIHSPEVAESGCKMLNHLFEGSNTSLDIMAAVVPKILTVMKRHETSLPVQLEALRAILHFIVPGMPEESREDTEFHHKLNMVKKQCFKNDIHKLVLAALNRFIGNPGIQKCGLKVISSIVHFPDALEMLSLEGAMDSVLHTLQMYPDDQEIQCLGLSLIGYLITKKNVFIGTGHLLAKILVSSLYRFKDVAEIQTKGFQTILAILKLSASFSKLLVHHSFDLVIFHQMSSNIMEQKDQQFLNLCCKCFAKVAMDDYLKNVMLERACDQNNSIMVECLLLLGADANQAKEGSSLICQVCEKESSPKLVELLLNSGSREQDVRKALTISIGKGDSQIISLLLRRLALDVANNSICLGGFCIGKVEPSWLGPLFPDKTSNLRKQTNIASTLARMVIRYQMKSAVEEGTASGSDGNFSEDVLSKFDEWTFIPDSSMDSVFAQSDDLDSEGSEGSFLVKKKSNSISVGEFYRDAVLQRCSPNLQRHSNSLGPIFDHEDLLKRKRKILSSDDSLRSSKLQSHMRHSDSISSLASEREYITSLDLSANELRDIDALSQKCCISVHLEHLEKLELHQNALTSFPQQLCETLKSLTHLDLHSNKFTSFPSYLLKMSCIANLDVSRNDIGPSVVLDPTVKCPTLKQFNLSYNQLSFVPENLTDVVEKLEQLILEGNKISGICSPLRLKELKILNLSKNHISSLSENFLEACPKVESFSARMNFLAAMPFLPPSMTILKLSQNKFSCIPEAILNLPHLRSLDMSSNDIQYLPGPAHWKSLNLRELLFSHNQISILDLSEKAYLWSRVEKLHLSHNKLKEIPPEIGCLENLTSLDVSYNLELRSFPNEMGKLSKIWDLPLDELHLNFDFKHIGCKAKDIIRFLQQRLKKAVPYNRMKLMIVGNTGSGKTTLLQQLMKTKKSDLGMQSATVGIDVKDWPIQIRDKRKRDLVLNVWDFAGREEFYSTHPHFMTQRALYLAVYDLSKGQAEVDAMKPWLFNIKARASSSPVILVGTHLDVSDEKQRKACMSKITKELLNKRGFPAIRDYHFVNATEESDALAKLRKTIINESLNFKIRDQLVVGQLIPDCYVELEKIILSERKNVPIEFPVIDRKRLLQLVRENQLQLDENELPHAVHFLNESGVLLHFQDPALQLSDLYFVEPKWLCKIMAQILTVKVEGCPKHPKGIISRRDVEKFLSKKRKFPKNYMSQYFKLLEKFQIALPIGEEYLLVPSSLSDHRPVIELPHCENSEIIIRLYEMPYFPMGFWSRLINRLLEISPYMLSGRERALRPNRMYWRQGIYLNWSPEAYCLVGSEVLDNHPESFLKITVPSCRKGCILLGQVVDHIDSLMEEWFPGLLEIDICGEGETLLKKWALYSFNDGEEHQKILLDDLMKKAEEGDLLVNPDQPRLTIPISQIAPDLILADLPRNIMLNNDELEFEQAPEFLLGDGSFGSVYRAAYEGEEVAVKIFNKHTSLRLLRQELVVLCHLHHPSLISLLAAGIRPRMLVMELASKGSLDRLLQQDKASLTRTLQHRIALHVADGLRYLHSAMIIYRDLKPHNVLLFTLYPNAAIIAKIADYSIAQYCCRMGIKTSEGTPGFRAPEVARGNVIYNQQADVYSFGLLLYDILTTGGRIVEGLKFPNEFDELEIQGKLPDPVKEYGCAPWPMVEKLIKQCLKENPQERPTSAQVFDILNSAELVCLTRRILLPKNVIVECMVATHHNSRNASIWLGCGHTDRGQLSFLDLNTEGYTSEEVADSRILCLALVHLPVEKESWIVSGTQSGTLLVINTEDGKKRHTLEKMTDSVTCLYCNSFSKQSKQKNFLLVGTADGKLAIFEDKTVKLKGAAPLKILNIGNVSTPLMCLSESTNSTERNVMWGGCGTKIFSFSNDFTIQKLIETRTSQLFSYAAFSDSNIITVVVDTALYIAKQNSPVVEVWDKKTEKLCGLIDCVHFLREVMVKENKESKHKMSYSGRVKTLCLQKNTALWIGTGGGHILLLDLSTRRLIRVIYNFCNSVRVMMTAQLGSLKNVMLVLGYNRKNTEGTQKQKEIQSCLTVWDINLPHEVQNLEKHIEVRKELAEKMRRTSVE

The experiment concerns the target LRRK2 G2019S (Homo sapiens, UniProt Q5S007, G2019S). As to the kind of experiment: LRRK2 G2019S Km ATP LanthaScreen assay. The settings on record: read-out: LRRK2 pIC50 (converted). In kind it is biochemical. Background: TR-FRET usually uses a lanthanide donor and a delayed reading to cut background.
As for `O=C(Nc1cc2cc(C3CCN(C4COC4)CC3)c(Cl)cc2cn1)[C@H]1C[C@H]1F` [Ex-1.13, (1R,2R)-N-(7-chloro-6-(1-(oxetan-3-yl)piperidin-4-yl)isoquinolin-3-yl)-2-fluorocyclopropane-1-carboxamide], the IC50 was 2.45 nM.

For the molecule `O=C(C[C@@H](O)C(F)(F)F)Nc1cc2cc(C3CCN(C4COC4)CC3)c(Cl)cc2cn1` [Ex-1.35, (R)-N-(7-chloro-6-(1-(oxetan-3-yl)piperidin-4-yl)isoquinolin-3-yl)-4,4,4-trifluoro-3-hydroxybutanamide], the IC50 is 26.3 nM.

Regarding `Cn1cc(C(=O)Nc2cc3cc(C4CCN(C5COC5)CC4)c(Cl)cc3cn2)cn1` [Ex-1.36, N-(7-chloro-6-(1-(oxetan-3-yl)piperidin-4-yl)isoquinolin-3-yl)-1-methyl-1H-pyrazole-4-carboxamide], the IC50 is 5.89 nM. `Cc1nc(C(=O)Nc2cc3cc(C4CCN(C5COC5)CC4)c(Cl)cc3cn2)co1` [Ex-1.37, N-(7-chloro-6-(1-(oxetan-3-yl)piperidin-4-yl)isoquinolin-3-yl)-2-methyloxazole-4-carboxamide]: the IC50 is 12.6 nM. The figure for `O=C(Nc1cc2cc(C3CCN(C4COC4)CC3)c(Cl)cc2cn1)c1cocn1` [Ex-1.38, N-(7-chloro-6-(1-(oxetan-3-yl)piperidin-4-yl)isoquinolin-3-yl)oxazole-4-carboxamide] is 11.5 nM; for `CC1(N2CCC(c3cc4cc(NC(=O)C5CC5C#N)ncc4cc3Cl)CC2)COC1` (stereo not drawn) [Ex-2.8] it is 8.32 nM; for `CCOC1CC1C(=O)Nc1cc2cc(C3CCN(C4(C)COCC4O)CC3)c(Cl)cc2cn1` (stereo not drawn) [Ex-2.10] it is 1.15 nM. To `CC1(C)CC1C(=O)Nc1cc2cc(C3CCN(C4(C)COCC4O)CC3)c(Cl)cc2cn1` (stereo not drawn) [Ex-2.11] belongs 2 nM. In the case of `CC1(C)CC1C(=O)Nc1cc2cc(C3CCN(C4(C)COCC4O)CC3)c(Cl)cc2cn1` (stereo not drawn) [Ex-2.12], the IC50 is 0.355 nM.

On to `CC(C)(O)C1CC(C(=O)Nc2cc3cc(C4CCN(C5(C)COCC5O)CC4)c(Cl)cc3cn2)C1` (stereo not drawn) [Ex-2.13], for which the IC50 was 0.174 nM. As for `CC(C)(O)C1CC(C(=O)Nc2cc3cc(C4CCN(C5(C)COCC5O)CC4)c(Cl)cc3cn2)C1` (stereo not drawn) [Ex-2.14], the IC50 was 0.186 nM. For `CC1(N2CCC(c3cc4cc(NC(=O)C5C6COCC65)ncc4cc3Cl)CC2)COCC1O` (stereo not drawn) [Ex-2.15], the IC50 is 0.214 nM. The figure for `CC1(N2CCC(c3cc4cc(NC(=O)C5CC56CCC(F)(F)CC6)ncc4cc3Cl)CC2)COCC1O` (stereo not drawn) [Ex-2.16] is 0.407 nM. As for `CC1(N2CCC(c3cc4cc(NC(=O)C5CC56CCC(F)(F)CC6)ncc4cc3Cl)CC2)COCC1O` (stereo not drawn) [Ex-2.17], the IC50 was 4.27 nM. The figure for `CC(C)(O)C1CC1C(=O)Nc1cc2cc(C3CCN(C4(C)COCC4O)CC3)c(Cl)cc2cn1` (stereo not drawn) [Ex-2.20] is 11.5 nM; for `CC(C)(O)C1CC1C(=O)Nc1cc2cc(C3CCN(C4(C)COCC4O)CC3)c(Cl)cc2cn1` (stereo not drawn) [Ex-2.21] it is 0.0813 nM. Consider `CC1(N2CCC(c3cc4cc(NC(=O)C5CC56CCOCC6)ncc4cc3Cl)CC2)CCOC1` (stereo not drawn) [Ex-2.22], for which the IC50 was 4.57 nM. The figure for `CC1(N2CCC(c3cc4cc(NC(=O)C5CC56CCOCC6)ncc4cc3Cl)CC2)CCOC1` (stereo not drawn) [Ex-2.23] is 0.166 nM; for `CC(C)(O)C1CC1C(=O)Nc1cc2cc(C3CCN(C4(C)CCOC4)CC3)c(Cl)cc2cn1` (stereo not drawn) [Ex-2.24] it is 0.257 nM. For `CC1(N2CCC(c3cc4cc(NC(=O)C5CCCOC5)ncc4cc3Cl)CC2)COCC1O` (stereo not drawn) [Ex-2.25], the IC50 is 0.0813 nM. Take `CC(C)OC1CCC(C(=O)Nc2cc3cc(C4CCN(C5(C)COCC5O)CC4)c(Cl)cc3cn2)CO1` (stereo not drawn) [Ex-2.27]: the IC50 is 0.324 nM. For the molecule `CC1(N2CCC(c3cc4cc(NC(=O)[C@@H]5CCCO5)ncc4cc3Cl)CC2)COCC1O` (stereo partly drawn) [Ex-2.28], the IC50 was 0.513 nM.

Consider `CC1(C)CC(C(=O)Nc2cc3cc(C4CCN(C5(C)COCC5O)CC4)c(Cl)cc3cn2)CO1` (stereo not drawn) [Ex-2.29], for which the IC50 is 0.234 nM.

For the molecule `CC1(C)CC(C(=O)Nc2cc3cc(C4CCN(C5(C)COCC5O)CC4)c(Cl)cc3cn2)CO1` (stereo not drawn) [Ex-2.30], the IC50 is 0.126 nM. The figure for `CC(C)(O)C1CC1C(=O)Nc1cc2cc(C3(C#N)CC34CC4)ccc2cn1` (stereo not drawn) [Ex-2.31] is 0.224 nM; for `CC1(N2CCC(c3cc4cc(NC(=O)C5CC5C#N)ncc4cc3Cl)CC2)COCC1O` (stereo not drawn) [Ex-2.32] it is 0.0813 nM; for `CC1(C)CC(C(=O)Nc2cc3cc(C4CCN(C5(C)COCC5O)CC4)c(Cl)cc3cn2)CCO1` (stereo not drawn) [Ex-2.34] it is 1.7 nM.

Consider `CC1(C)CC(C(=O)Nc2cc3cc(C4CCN(C5(C)COCC5O)CC4)c(Cl)cc3cn2)CCO1` (stereo not drawn) [Ex-2.35], for which the IC50 is 2.63 nM.

As for `Cn1cc(C2CC2C(=O)Nc2cc3cc(C4CCN(C5(C)COCC5O)CC4)c(Cl)cc3cn2)cn1` (stereo not drawn) [Ex-2.36], the IC50 is 0.55 nM. To `Cn1cc(C2CC2C(=O)Nc2cc3cc(C4CCN(C5(C)COCC5O)CC4)c(Cl)cc3cn2)cn1` (stereo not drawn) [Ex-2.37] belongs 0.0813 nM; to `N#CC1(c2ccc3cnc(NC(=O)C4CC4c4ccccn4)cc3c2)CC12CC2` (stereo not drawn) [Ex-2.38], 2.04 nM; to `N#CC1(c2ccc3cnc(NC(=O)C4CC4c4ccccn4)cc3c2)CC12CC2` (stereo not drawn) [Ex-2.39], 2.29 nM.

Turning to `N#CC1(c2ccc3cnc(NC(=O)C4CC4c4ccccn4)cc3c2)CC12CC2` (stereo not drawn) [Ex-2.40], the IC50 is 0.575 nM.

As to `N#CC1(c2ccc3cnc(NC(=O)C4CC4c4ccncc4)cc3c2)CC12CC2` (stereo not drawn) [Ex-2.41], the IC50 was 1.86 nM. In the case of `N#CC1(c2ccc3cnc(NC(=O)C4CC4c4ccncc4)cc3c2)CC12CC2` (stereo not drawn) [Ex-2.42], the IC50 was 2.34 nM. To `N#CC1(c2ccc3cnc(NC(=O)C4CCN(CC(F)(F)F)C4)cc3c2)CC12CC2` (stereo not drawn) [Ex-2.43] belongs 31.6 nM.

Turning to `N#CC1(c2ccc3cnc(NC(=O)C4CCN(CC(F)(F)F)C4)cc3c2)CC12CC2` (stereo not drawn) [Ex-2.44], the IC50 is 39.8 nM. For `N#CC1(c2ccc3cnc(NC(=O)C4CC4c4cccnc4)cc3c2)CC12CC2` (stereo not drawn) [Ex-2.45], the IC50 is 11.2 nM. In the case of `N#CC1(c2ccc3cnc(NC(=O)C4CC4c4cccnc4)cc3c2)CC12CC2` (stereo not drawn) [Ex-2.46], the IC50 was 0.851 nM. To `Cn1ncc(C2CC2C(=O)Nc2cc3cc(C4(C#N)CC45CC5)ccc3cn2)c1C(F)(F)F` (stereo not drawn) [Ex-2.47] belongs 457 nM; to `Cn1ncc(C2CC2C(=O)Nc2cc3cc(C4(C#N)CC45CC5)ccc3cn2)c1C(F)(F)F` (stereo not drawn) [Ex-2.48], 324 nM; to `Cc1cc2cnc(NC(=O)C3CCOC(C)(C)C3)cc2cc1C1CCN(C2(C)COCC2O)CC1` (stereo not drawn) [Ex-2.49], 0.513 nM.

Consider `Cc1cc2cnc(NC(=O)C3CCOC(C)(C)C3)cc2cc1C1CCN(C2(C)COCC2O)CC1` (stereo not drawn) [Ex-2.50], for which the IC50 was 7.41 nM. `Cc1cc2cnc(NC(=O)C3C4CCOCC43)cc2cc1C1CCN(C2(C)COCC2O)CC1` (stereo not drawn) [Ex-2.51]: the IC50 is 0.759 nM. The figure for `Cc1cc2cnc(NC(=O)C3C4CCOCC43)cc2cc1C1CCN(C2(C)COCC2O)CC1` (stereo not drawn) [Ex-2.52] is 0.676 nM. To `Cc1cc2cnc(NC(=O)C3CC3C(F)F)cc2cc1C1CCN(C2(C)COCC2O)CC1` (stereo not drawn) [Ex-2.53] belongs 0.813 nM; to `Cc1cc2cnc(NC(=O)C3CC3C(F)F)cc2cc1C1CCN(C2(C)COCC2O)CC1` (stereo not drawn) [Ex-2.54], 0.49 nM; to `Cc1cc2cnc(NC(=O)C3CC3C(F)F)cc2cc1C1CCN(C2(C)COCC2O)CC1` (stereo not drawn) [Ex-2.55], 3.98 nM. The figure for `Cc1cc2cnc(NC(=O)C3CC3C(F)F)cc2cc1C1CCN(C2(C)COCC2O)CC1` (stereo not drawn) [Ex-2.56] is 1.58 nM; for `CC1(C)CC(C(=O)Nc2cc3cc(C4(C#N)CC45CC5)ccc3cn2)CCO1` (stereo not drawn) [Ex-2.57] it is 2.14 nM; for `CC1(C)CC(C(=O)Nc2cc3cc(C4(C#N)CC45CC5)ccc3cn2)CCO1` (stereo not drawn) [Ex-2.58] it is 11.2 nM.

Regarding `CC1(N2CCC(c3cc4cc(NC(=O)C5CCC(C(F)(F)F)OC5)ncc4cc3Cl)CC2)COCC1O` (stereo not drawn) [Ex-2.59], the IC50 is 5.13 nM.

Consider `CC1(N2CCC(c3cc4cc(NC(=O)C5CCC(C(F)(F)F)OC5)ncc4cc3Cl)CC2)COCC1O` (stereo not drawn) [Ex-2.60], for which the IC50 is 47.9 nM. As to `CC1(N2CCC(c3cc4cc(NC(=O)C5CCC(C(F)(F)F)OC5)ncc4cc3Cl)CC2)COCC1O` (stereo not drawn) [Ex-2.61], the IC50 was 43.7 nM.

With `CC1(N2CCC(c3cc4cc(NC(=O)C5CCC(C(F)(F)F)OC5)ncc4cc3Cl)CC2)COCC1O` (stereo not drawn) [Ex-2.62], the IC50 is 5.13 nM. Regarding `N#CC1(c2ccc3cnc(NC(=O)C4CC45CCOC5)cc3c2)CC12CC2` (stereo not drawn) [Ex-2.63], the IC50 is 12.3 nM.

As for `N#CC1(c2ccc3cnc(NC(=O)C4CC45CCOC5)cc3c2)CC12CC2` (stereo not drawn) [Ex-2.64], the IC50 was 10.5 nM. The figure for `N#CC1(c2ccc3cnc(NC(=O)C4CC45CCOC5)cc3c2)CC12CC2` (stereo not drawn) [Ex-2.65] is 25.7 nM. The figure for `N#CC1(c2ccc3cnc(NC(=O)C4CC45CCOC5)cc3c2)CC12CC2` (stereo not drawn) [Ex-2.66] is 14.5 nM. With `Cn1ccc(C2CC2C(=O)Nc2cc3cc(C4(C#N)CC45CC5)ccc3cn2)n1` (stereo not drawn) [Ex-2.71], the IC50 is 5.75 nM. To `Cn1ccc(C2CC2C(=O)Nc2cc3cc(C4(C#N)CC45CC5)ccc3cn2)n1` (stereo not drawn) [Ex-2.72] belongs 3.31 nM; to `Cn1cc(N2CCC(C(=O)Nc3cc4cc(C5(C#N)CC56CC6)ccc4cn3)C2)cn1` (stereo not drawn) [Ex-2.76], 26.3 nM; to `Cn1cc(N2CCC(C(=O)Nc3cc4cc(C5(C#N)CC56CC6)ccc4cn3)C2)cn1` (stereo not drawn) [Ex-2.77], 10.2 nM. In the case of `Cn1ncc(C2CC2C(=O)Nc2cc3cc(C4(C#N)CC45CC5)ccc3cn2)c1Cl` (stereo not drawn) [Ex-2.78], the IC50 is 16.2 nM. To `Cn1ncc(C2CC2C(=O)Nc2cc3cc(C4(C#N)CC45CC5)ccc3cn2)c1Cl` (stereo not drawn) [Ex-2.79] belongs 34.7 nM.

With `CC1C(C(=O)Nc2cc3cc(C4CCN(C5(C)COCC5F)CC4)c(Cl)cc3cn2)C1c1cnn(C)c1` (stereo not drawn) [Ex-2.80], the IC50 was 0.0813 nM.

For the molecule `CCOC1CC2(C1)CC2C(=O)Nc1cc2cc(C3CCN(C4(C)COCC4F)CC3)c(Cl)cc2cn1` (stereo not drawn) [Ex-2.82], the IC50 is 0.0813 nM. As to `Cn1ccc(C2CC2C(=O)Nc2cc3cc(C4CCN(C5(C)COCC5F)CC4)c(Cl)cc3cn2)n1` (stereo not drawn) [Ex-2.84], the IC50 was 0.0813 nM. As for `CCC1C(C(=O)Nc2cc3cc(C4CCN(C5(C)COCC5F)CC4)c(Cl)cc3cn2)C1c1ccn(C)n1` (stereo not drawn) [Ex-2.86], the IC50 is 0.0813 nM.
